Test results reported in patent EP1311486B1, “USES OF THALIPORPHINE OR ITS DERIVATIVES IN TREATMENT OF CARDIAC DISEASES AND PREPARATION OF SAME” (Lotus Pharmaceutical Co., Ltd., priority 2000, dated 2002).
pIC50: −log10 of the molar value. “And” between values parts separate entries of the source, which are not always exact repeats. Equal entries are not always repeated.

Tests used:
[1] = system: rats subjected to 4 hours coronary ligation; assay: Area at risk and infarct size after 4 hours coronary ligation (triphenyl tetrazolium chloride-Evan's blue staining); type: in vivo, rat
Description: Infarct size was determined by the triphenyl tetrazolium chloride-Evan's blue staining technique. The rat was sacrificed after its left descending coronary artery had been occluded for 4 hours. The weight of infarct tissue was expressed as a percentage of total ventricular weight or occluded zone. The difference in infarct size was statistically analyzed using unpaired Student's t-test. Table 4 Area at risk and infarct size in vehicle and THP-treated rats subjected to 4 hours coronary ligation
The difference in ischemic area and infarct size shown by staining technique after 4 hours of ischemia is evaluated. […] In the vehicle group, the necrotic area expresses either as a percentage of the area at risk (45.2±1.0%) or as a percentage of the total ventricle (19.8±2.2%), indicating the amount of cardiac tissue at risk becomes necrotic. Administration of THP reduces myocardial necrosis extension in a dose dependent manner. This reduction is observed either in the necrotic area/area at risk (38.1±5.0%, 29.0±2.5% and 10.7±1.8%/with 3.5x10^-7, 10^-6, 10^-5 g/kg of THP, respectively) or in the necrotic area/total ventricle (17.9+2.3%, 13.4±1.2% and 5.0±0.9% with 3.5x10^-7, 10^-6, 10^-5 g/kg of THP, respectively).

[2] = system: isolated rat hearts; assay: Arrhythmia induced by ligation-reperfusion in isolated rat heart
Description: The isolated rat hearts were ligated by a temporary tightening of the silk ligature around the left main coronary artery to induce myocardial ischemia. Reperfusion was achieved by releasing the tension applying to the ligature to induce arrhythmia. 10µM THP was then administered and the atrial and ventricular electrograms were recorded.
Similarly, 10µM THP can be effective in inhibiting the cardiac arrhythmia induced in the isolated guinea pig heart subjected to global ischemia followed by reperfusion (Table 1). The structure of coronary arteries between rat and guinea pig are not alike, THP, however, can be effective in inhibiting the arrhythmia induced in the isolated heart subjected to ischemia-reperfusion in both animals.

[3] = system: delayed outward potassium current (IK); assay: Inhibition of delayed outward potassium current; details: guinea pigs
Description: (§1) Moreover, 3-10µM THP prolongs the action potential duration in the atria or ventricles of both rats and guinea pigs (data not shown).

[4] = system: AV node conduction; assay: His bundle electrogram of isolated heart, Langendorff perfusion, atrial pacing at 300 ms cycle length; set-up: species or system rats and guinea pigs; details: for atrial effective refractory period (AERP): before drug THP 60 ms, quinidine 40 ms; for ventricular effective refractory period (VERP): before drug THP 160 ms, quinidine 180 ms; for AV node effective refractory period (AVNERP): before drug THP 170 ms, quinidine 130 ms; for wenckbach cycle length (WCL): before drug THP 200 ms, quinidine 150 ms
Description: The investigation conforms to the Guide for the Care and Use of Laboratory Animals published by the US National Institutes of Health (NIH publication No. 85-23, revised 1996). Adult rats and guinea pigs were killed after hepariniation and anesthetization with urethane (1.25 g/kg i.p.). After isolating the heart, the aorta was perfused with 10µM quinidine and THP, respectively, by Langendorff perfusion. A pair of bipolar electrodes connected with silver wire were placed on the tip of the Triangle of Koch to record the His bundle electrogram. In addition, another pair of bipolar electrodes connected with silver wire were placed on the surface of the right ventricle to record T wave. […] The QT interval, conduction time through the sinoatrial (SA interval), the atrioventricular node (AH interval) and His-purkinje system (HV interval) were recorded, respectively, using electrocardiograph. Similarly, the recovery curve of His-purkinje system (i.e. the relationship of H2V2 and V1H2), atrial and ventricular refractory period and AV node refractory period were also recorded in the same manner. 1 and 2.
The SA, AH, HV intervals and T wave are prolonged in the quinidine-treated heart (FIG. 1). […] In addition, 3, 10 and 30µM THP can prolong the atrial effective refractory period (AERP) from 60 ms to 90, 100 and 120 ms, respectively; the ventricular effective refractory period (VERP) from 160 ms to 160, 170 and 190 ms, respectively; and the AV node effective refractory period (AVNERP) from 170 ms to 170, 200 and 240 ms, respectively. When compared with THP in the same manner, 3,10 and 30µM quinidine can prolong the AERP from 40 ms to 60, 80 and 130 ms; the VERP from 180 ms to 170, 180 and 190 ms; and the AVNERP from 130 ms to 150, 200 and 245 ms, respectively. Further, 3, 10 and 30µM THP can change the wenckbach cycle length (WCL) from 200 ms to 210, 230 and 280 ms, respectively; whereas 3, 10 and 30µM quinidine can change the WCL from 150 ms to 170, 210 and 300 ms, respectively. Both THP and quinidine prolong AERP, VERP and AVNERP, however, only quinidine inhibits conduction in AV node (prolonged AH interval). In contrast, even when the THP concentration raised to 10µM, the conduction in AV node is not inhibited.

[5] = system: transient outward potassium current (Ito); assay: Inhibition of transient outward potassium current; details: rats
Description: as §1

[6] = system: inward calcium current; details: Su MJ, et al., Eur. J. Pharmacol., 1994; cited from earlier work

## COc1cc2c(cc1OC)-c1c(O)c(OC)cc3c1C(C2)N(C)CC3 (single isomer, unassigned; (+)) [THP, (+)-Thaliporphine]
[1]; THP 3.5x10^-5 g/kg
  Area at risk (% of ventricle): 46.9±0.5 % of ventricle
  Necrotic (% of Area at risk): 10.7±1.8 % of Area at risk
  Necrotic (% of ventricle): 5.0±0.9 % of ventricle
[1]; THP 3.5x10^-6 g/kg
  Area at risk (% of ventricle): 46.5±0.9 % of ventricle
  Necrotic (% of Area at risk): 29.0±2.5 % of Area at risk
  Necrotic (% of ventricle): 13.4±1.2 % of ventricle
[1]; THP 3.5x10^-7 g/kg
  Area at risk (% of ventricle): 47.0±0.6 % of ventricle
  Necrotic (% of Area at risk): 38.1±5.0 % of Area at risk
  Necrotic (% of ventricle): 17.9+2.3 % of ventricle and 17.9±2.3 % of ventricle
[2]; 10 µM, FIG. 5 (a)
  effect on polymorphic ventricular tachyrhythmia induced by ischemia-reperfusion: conversion of polymorphic ventricular tachyrhythmia induced by ischemia-reperfusion to normal sinus rhythm
[2]; 0.5 h, isolated rat heart, 30 minutes ligation followed by reperfusion, 3-30µM, read-out: IC50, reversing the cardiac arrhythmia
  pIC50: 4.80
[3]
  delayed outward potassium current (IK): markedly inhibit
[4]; 3µM
  atrial effective refractory period (AERP): 90 ms
  ventricular effective refractory period (VERP): 160 ms
  AV node effective refractory period (AVNERP): 170 ms
  wenckbach cycle length (WCL): 210 ms
[4]; 10µM, isolated perfused heart
  AH interval (conduction in AV node): not inhibited
  HV interval: prolonged slightly
  SA interval: remains unaffected
[4]; 10µM
  atrial effective refractory period (AERP): 100 ms
  ventricular effective refractory period (VERP): 170 ms
  AV node effective refractory period (AVNERP): 200 ms
  wenckbach cycle length (WCL): 230 ms
[4]; 30µM
  atrial effective refractory period (AERP): 120 ms
  ventricular effective refractory period (VERP): 190 ms
  AV node effective refractory period (AVNERP): 240 ms
  wenckbach cycle length (WCL): 280 ms
[5]
  transient outward potassium current (Ito): markedly inhibit
[6]
  inward calcium current: enhance
